The results in this text go back to US20240425490A1, “SULFAMIDE RIBONUCLEOTIDE REDUCTASE (RNR) INHIBITORS AND USES THEREOF” (Boundless Bio, Inc., priority 2021, published 2024).

SMILES strings stand for the structures.

The target in this experiment is T1, RNR (RNR1:RNR2 1:1) (Homo sapiens, UniProt P23921).
T1 sequence (P23921 1-792): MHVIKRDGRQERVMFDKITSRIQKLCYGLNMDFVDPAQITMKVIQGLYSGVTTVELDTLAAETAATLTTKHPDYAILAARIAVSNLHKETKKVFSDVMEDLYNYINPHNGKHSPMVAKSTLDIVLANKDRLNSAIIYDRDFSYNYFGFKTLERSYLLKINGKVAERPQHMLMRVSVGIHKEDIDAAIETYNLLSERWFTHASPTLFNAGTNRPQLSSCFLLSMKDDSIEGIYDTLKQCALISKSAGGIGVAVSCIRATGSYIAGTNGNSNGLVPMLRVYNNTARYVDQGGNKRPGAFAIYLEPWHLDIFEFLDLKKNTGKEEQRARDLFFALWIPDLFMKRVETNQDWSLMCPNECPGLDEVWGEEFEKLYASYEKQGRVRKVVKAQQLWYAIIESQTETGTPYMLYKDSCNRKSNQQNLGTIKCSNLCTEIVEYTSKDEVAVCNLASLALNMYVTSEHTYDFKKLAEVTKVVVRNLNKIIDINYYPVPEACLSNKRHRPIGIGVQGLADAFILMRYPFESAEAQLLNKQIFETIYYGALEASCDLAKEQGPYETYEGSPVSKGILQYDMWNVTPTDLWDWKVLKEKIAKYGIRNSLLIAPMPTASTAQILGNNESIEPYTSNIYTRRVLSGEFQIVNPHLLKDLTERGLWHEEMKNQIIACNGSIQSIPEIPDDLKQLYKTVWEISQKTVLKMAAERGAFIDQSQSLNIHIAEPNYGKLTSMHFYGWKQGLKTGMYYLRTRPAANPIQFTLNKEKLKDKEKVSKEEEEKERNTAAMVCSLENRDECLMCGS
The experiment in a line: RNR enzyme activity, rapid-fire mass spectrometry (RFMS) assay. Type of experiment: biochemical. Particulars: RNR 50 nM, CDP 5 μM, ATP 1 mM, 37° C., 45 min, compounds screened up to 50 μM, read-out: RF/MS IC50. The protocol:
A rapid-fire mass spectrometry (RFMS) assay was used to assess RNR enzyme activity using a 384 well plate and a robotic platform.
The plate layout included two validated reference compounds (Triapine (3-AP) and Hydroxyurea (HU)): • A dose response in duplicate; top concentration: 5 μM (3-AP) and 250 μM (HU), semi-log dilutions. • Spike wells in triplicate randomly spotted at four concentrations: • 250 μM, 100 μM, 30 μM and 2 μM for HU • 5 μM, 2 μM, 0.6 μM and 0.04 μM for 3-AP
First, the multidrop pipes were saturated for 30 minutes with enzymatic solution. Then 30 μL of Stop solution was distributed in column 24. Next, 15 μL of enzyme was distributed in column 1 to 24. Next, a pre-incubation step of 15 minutes at room temperature occurred, followed by distribution of 15 μL of substrate solution (column 1 to 24). Next, the plate was incubated for 45 minutes at 37° C. 30 μL of Stop solution was distributed to columns 1 to 23.
The final parameters for the enzyme reactions were: • Incubation: 37° C., 45 min • [CDP]: 5 μM; [ATP]: 1 mM; [NADPH]: No • [RNR] final: 50 nM with 1:1 (RNR1:RNR2) ratio • Final volume: 30 μL • Stop solution: 6% HCOOH containing 2 μM of 15
On to `CC(=O)[C@H]1CCCCN1S(=O)(=O)N[C@H](c1n[nH]c(=O)o1)[C@H](C)c1c(F)ccc(C)c1C` [Example 19, (R)-2-acetyl-N-((1S,2R)-2-(6-fluoro-2,3-dimethylphenyl)-1-(5-oxo-4,5-dihydro-1,3,4-oxadiazol-2-yl)propyl)piperidine-1-sulfonamide], for which the IC50 fell in the range of 1 to 10 µM.
Take `Cc1ccc(F)c([C@@H](C)[C@H](NS(=O)(=O)N2CCC[C@](C)(O)C2)c2n[nH]c(=O)o2)c1C` [Example 20, (S)-N-((1S,2R)-2-(6-fluoro-2,3-dimethylphenyl)-1-(5-oxo-4,5-dihydro-1,3,4-oxadiazol-2-yl)propyl)-3-hydroxy-3-methylpiperidine-1-sulfonamide]: the IC50 lay within 1 to 10 µM.
On to `Cc1ccc(F)c([C@H](C)[C@H](NS(=O)(=O)N2CCC[C@](C)(O)C2)c2n[nH]c(=O)o2)c1C` [Example 21, (S)-N-((1S,2S)-2-(6-fluoro-2,3-dimethylphenyl)-1-(5-oxo-4,5-dihydro-1,3,4-oxadiazol-2-yl)propyl)-3-hydroxy-3-methylpiperidine-1-sulfonamide], for which the IC50 is 1 to 10 µM.
Take `Cc1ccc(F)c([C@@H](C)[C@H](NS(=O)(=O)N2CCC[C@@](C)(O)C2)c2n[nH]c(=O)o2)c1C` [Example 22, (R)-N-((1S,2R)-2-(6-fluoro-2,3-dimethylphenyl)-1-(5-oxo-4,5-dihydro-1,3,4-oxadiazol-2-yl)propyl)-3-hydroxy-3-methylpiperidine-1-sulfonamide]: the IC50 lay in the range of 10 to 100 µM.
For `Cc1ccc(F)c(C(C)[C@H](NS(=O)(=O)N2CCCC3CN(C(=O)OC(C)(C)C)CC32)c2n[nH]c(=O)o2)c1C` (stereo partly drawn) [Example 23, tert-butyl 1-(N-((1S)-2-(6-fluoro-2,3-dimethylphenyl)-1-(5-oxo-4,5-dihydro-1,3,4-oxadiazol-2-yl)propyl)sulfamoyl)-octahydro-6H-pyrrolo[3,4-b]pyridine-6-carboxylate], the IC50 is 1 to 10 µM.
As for `Cc1ccc(F)c(C(C)[C@H](NS(=O)(=O)N2CCCC(C(C)C)C2)c2n[nH]c(=O)o2)c1C` (stereo partly drawn) [Example 24, N-((1S)-2-(6-fluoro-2,3-dimethylphenyl)-1-(5-oxo-4,5-dihydro-1,3,4-oxadiazol-2-yl)propyl)-3-isopropylpiperidine-1-sulfonamide], the figure is 0.1 to 1 µM; as for `Cc1ccc(F)c(C(C)[C@H](NS(=O)(=O)N2CCCC(N(C)C)C2)c2n[nH]c(=O)o2)c1C` (stereo partly drawn) [Example 25, 3-(dimethylamino)-N-((1S)-2-(6-fluoro-2,3-dimethylphenyl)-1-(5-oxo-4,5-dihydro-1,3,4-oxadiazol-2-yl)propyl)piperidine-1-sulfonamide], 10 to 100 µM; as for `Cc1ccc(F)c(C(C)[C@H](NS(=O)(=O)N2CCCC(C#N)C2)c2n[nH]c(=O)o2)c1C` (stereo partly drawn) [Example 26, 3-cyano-N-((1S)-2-(6-fluoro-2,3-dimethylphenyl)-1-(5-oxo-4,5-dihydro-1,3,4-oxadiazol-2-yl)propyl)piperidine-1-sulfonamide], 1 to 10 µM.
Take `CC(=O)NC1CCN(S(=O)(=O)N[C@H](c2n[nH]c(=O)o2)C(C)c2c(F)ccc(C)c2C)CC1` (stereo partly drawn) [Example 29, N-(1-(N-((1S)-2-(6-fluoro-2,3-dimethylphenyl)-1-(5-oxo-4,5-dihydro-1,3,4-oxadiazol-2-yl)propyl)sulfamoyl)piperidin-4-yl)acetamide]: the IC50 was in the range of 10 to 100 µM.
As for `CC(=O)NC1CCN(S(=O)(=O)N[C@H](c2n[nH]c(=O)o2)[C@@H](C)c2c(F)ccc(C)c2C)CC1` [Example 30, N-(1-(N-((1S,2S)-2-(6-fluoro-2,3-dimethylphenyl)-1-(5-oxo-4,5-dihydro-1,3,4-oxadiazol-2-yl)propyl)sulfamoyl)piperidin-4-yl)acetamide], the IC50 lay within 1 to 10 µM.
To `Cc1ccc(F)c(C(C)[C@H](NS(=O)(=O)N2CCC(CN(C)C)CC2)c2n[nH]c(=O)o2)c1C` (stereo partly drawn) [Example 31, 4-((dimethylamino)methyl)-N-((1S)-2-(6-fluoro-2,3-dimethylphenyl)-1-(5-oxo-4,5-dihydro-1,3,4-oxadiazol-2-yl)propyl)piperidine-1-sulfonamide] belongs 10 to 100 µM; to `Cc1ccc(F)c(C(C)[C@H](NS(=O)(=O)N2CCC(C(C)O)CC2)c2n[nH]c(=O)o2)c1C` (stereo partly drawn) [Example 32, N-((1S)-2-(6-fluoro-2,3-dimethylphenyl)-1-(5-oxo-4,5-dihydro-1,3,4-oxadiazol-2-yl)propyl)-4-(1-hydroxyethyl)piperidine-1-sulfonamide], 1 to 10 µM; to `Cc1ccc(F)c(C(C)[C@H](NS(=O)(=O)N2CCC(C(F)(F)F)CC2)c2n[nH]c(=O)o2)c1C` (stereo partly drawn) [Example 33, N-((1S)-2-(6-fluoro-2,3-dimethylphenyl)-1-(5-oxo-4,5-dihydro-1,3,4-oxadiazol-2-yl)propyl)-4-(trifluoromethyl)piperidine-1-sulfonamide], 1 to 10 µM.
To `Cc1ccc(F)c(C(C)[C@H](NS(=O)(=O)N2CCC(c3ccccc3)CC2)c2n[nH]c(=O)o2)c1C` (stereo partly drawn) [Example 34, N-((1S)-2-(6-fluoro-2,3-dimethylphenyl)-1-(5-oxo-4,5-dihydro-1,3,4-oxadiazol-2-yl)propyl)-4-phenylpiperidine-1-sulfonamide] belongs 1 to 10 µM; to `Cc1ccc(F)c([C@@H](C)[C@H](NS(=O)(=O)N2CCCCC2c2ccccc2)c2n[nH]c(=O)o2)c1C` (stereo partly drawn) [Example 35, N-((1S,2R)-2-(6-fluoro-2,3-dimethylphenyl)-1-(5-oxo-4,5-dihydro-1,3,4-oxadiazol-2-yl)propyl)-2-phenylpiperidine-1-sulfonamide], 1 to 10 µM.
On to `Cc1ccc(F)c([C@H](C)[C@H](NS(=O)(=O)N2CCCCC2c2ccccc2)c2n[nH]c(=O)o2)c1C` (stereo partly drawn) [Example 36, N-((1S,2S)-2-(6-fluoro-2,3-dimethylphenyl)-1-(5-oxo-4,5-dihydro-1,3,4-oxadiazol-2-yl)propyl)-2-phenylpiperidine-1-sulfonamide], for which the IC50 was in the range of 10 to 100 µM.
Turning to `CC(=O)N1CCN(S(=O)(=O)N[C@H](c2n[nH]c(=O)o2)C(C)c2c(F)ccc(C)c2C)CC1` (stereo partly drawn) [Example 37, 4-acetyl-N-((1S)-2-(6-fluoro-2,3-dimethylphenyl)-1-(5-oxo-4,5-dihydro-1,3,4-oxadiazol-2-yl)propyl)piperazine-1-sulfonamide], the IC50 is 1 to 10 µM.
Regarding `Cc1ccc(F)c([C@@H](C)[C@H](NS(=O)(=O)N2CCC(C(C)C)CC2)c2n[nH]c(=O)o2)c1C` [Example 38, N-((1S,2R)-2-(6-fluoro-2,3-dimethylphenyl)-1-(5-oxo-4,5-dihydro-1,3,4-oxadiazol-2-yl)propyl)-4-isopropylpiperidine-1-sulfonamide], the IC50 lay in the range of 10 to 100 µM.
As to `Cc1ccc(F)c([C@H](C)[C@H](NS(=O)(=O)N2CCC(C(C)C)CC2)c2n[nH]c(=O)o2)c1C` [Example 39, N-((1S,2S)-2-(6-fluoro-2,3-dimethylphenyl)-1-(5-oxo-4,5-dihydro-1,3,4-oxadiazol-2-yl)propyl)-4-isopropylpiperidine-1-sulfonamide], the IC50 lay within 1 to 10 µM.
With `Cc1ccc(F)c([C@H](C)[C@H](NS(=O)(=O)N2CCC(CCl)CC2)c2n[nH]c(=O)o2)c1C` [Example 40, 4-(chloromethyl)-N-((1S,2S)-2-(6-fluoro-2,3-dimethylphenyl)-1-(5-oxo-4,5-dihydro-1,3,4-oxadiazol-2-yl)propyl)piperidine-1-sulfonamide], the IC50 was 10 to 100 µM.
With `Cc1ccc(F)c([C@@H](C)[C@H](NS(=O)(=O)N2CCC(CCl)CC2)c2n[nH]c(=O)o2)c1C` [Example 41, 4-(chloromethyl)-N-((1S,2R)-2-(6-fluoro-2,3-dimethylphenyl)-1-(5-oxo-4,5-dihydro-1,3,4-oxadiazol-2-yl)propyl)piperidine-1-sulfonamide], the IC50 lay in the range of 0.1 to 1 µM.
As for `Cc1ccc(F)c([C@H](C)[C@H](NS(=O)(=O)N2CC3CCCC(C3)C2)c2n[nH]c(=O)o2)c1C` [Example 42, N-((1S,2S)-2-(6-fluoro-2,3-dimethylphenyl)-1-(5-oxo-4,5-dihydro-1,3,4-oxadiazol-2-yl)propyl)-3-azabicyclo[3.3.1]nonane-3-sulfonamide], the figure is 10 to 100 µM.
